From patent publication US11555210B2, “Microbe having increased tolerance to phenolic fermentation inhibitors” (University of Ottawa, priority 2018, dated 2023)
Entries after “also recorded” stand apart in the source; their conditions may differ.

Legend:
[1] = system: wild-type cells expressing PEX3-RFP, SEC13-RFP or CIT1-RFP; test: co-localization of ROS signal with organelle markers; assay type: cell-based, S. cerevisiae
Excerpt: (§1) For co-localization studies, images were obtained as Z-stacks. Co-localization of the fluorescence signals were quantified using the IMARIS software 9.2.1 (Bitplane; http://www.bitplane.com) and a Manders' overlap co-efficient (Manders et al., 1993, Journal of Microscopy. 169, 375-382) was used to evaluate the fraction of RFP pixels (organelle marker) also positive for GFP pixels ([…]). The closer the value is to one, the higher the level of co-localization. The analysis was complemented by performing an object-based quantification where the percentage volume of ROS that localized to the mitochondria and endoplasmic reticulum was measured.

bna7Δ (YKB4649) = test: serial dilution spot assay on YPD agar plates; assay type: cell-based, S. cerevisiae; conditions: 10 mM FA, 35 mM 4-HBA or 1 mM CA, 48 hr at 30° C.
Experimental: In addition, deletion mutants were generated for genes involved in the tryptophan catabolic pathway and their growth was assayed on solid media containing 10 mM ferulic acid. In particular, wild type yeast (BY4741) along with deletion mutants aro8Δ (YKB4799), bna7Δ (YKB4649), bna2Δ (YKB4798), bna6Δ (YKB4844), bna5Δ (YKB4845), bna4Δ (YKB4846) and bna1Δ (YKB4729) were grown to mid log phase ([…] 0.5-0.6) in YPD medium prior to being diluted to an OD600 of 0.1. Four 10-fold serial dilutions were spotted onto YPD agar plates either containing 10 mM ferulic acid or no ferulic acid. Plates were incubated for 48 hr at 30° C. Images of the plates were taken with the ChemiDoc XRS Molecular Imaging system (Biorad) and images are representative of three biological replicates.
(§2) Experiments were also conducted to determine if deletion of BNA7 could provide protection to 4-hydroxybenzoic acid or coniferyl aldehyde (CA). Wild type (BY4741) and bna7A (YKB4649) strains were grown to mid log phase in YPD medium prior to being diluted into fresh medium to an OD600 of 0.1. Four 10-fold serial dilutions were spotted onto YPD agar plates containing either no compound (Untreated), 10 mM ferulic acid (FA), 35 mM 4-hydroxybenzoic acid (4-HBA) or 1 mM coniferyl aldehyde (CA). Plates were incubated for 48 hr at 30° C. and images are representative of three biological replicates.

zwf1Δ (YKB4794) = test: dot assay on YPD agar plates; assay type: cell-based, S. cerevisiae; conditions: 10 mM FA, 35 mM 4-HBA or 1 mM CA, 48 hr at 30° C., compared to wild type
Experimental: (§3) Wild type (BY4741) along with zwf1Δ (YKB4794), sol2Δ (YKB4847), sol3Δ (YKB4848), gnd1Δ (YKB4797), gnd2Δ (YKB4850), rpe1Δ (YKB4795), tal1Δ (YKB4851) and tkl1Δ (YKB4796) deletion strains were grown to mid log phase in YPD medium prior to being diluted into fresh medium to an OD600of 0.1. Four 10-fold serial dilutions were spotted onto YPD agar plates containing either 1 mM coniferyl aldehyde (1 mM CA) or no coniferyl aldehyde (0 mM CA). Plates were incubated for 48 hr at 30° C. and images are representative of three biological replicates.
as §2, with “Wild” for “Experiments were also conducted to determine if deletion of BNA7 could provide protection to 4-hydroxybenzoic acid or coniferyl aldehyde (CA). Wild”, “(BY4741), bna7Δ (YKB4649)” for “(BY4741)”, “zwf1Δ (YKB4794)” for “bna7A (YKB4649) strains”

gnd1Δ (YKB4797) = test: dot assay on YPD agar plates; assay type: cell-based, S. cerevisiae; conditions: 1 mM coniferyl aldehyde, 48 hr at 30° C.
Experimental: as §3

tkl1Δ (YKB4796) = test: dot assay on YPD agar plates; assay type: cell-based, S. cerevisiae; conditions: 1 mM coniferyl aldehyde, 48 hr at 30° C.
Experimental: as §3

rpe1Δ (YKB4795) = test: dot assay on YPD agar plates; assay type: cell-based, S. cerevisiae; conditions: 1 mM coniferyl aldehyde, 48 hr at 30° C.
Experimental: as §3

[2] = system: Saccharomyces cerevisiae ethanol red; conditions: commercial Saccharomyces cerevisiae ethanol red; Adeboye et al., 2014; cited from earlier work
Zwf1-GFP = test: co-localization of Zwf1-GFP with mitochondrial and ER markers; assay type: cell-based, S. cerevisiae
Excerpt: as §1
A strain expressing endogenously tagged Zwf1-GFP and either the mitochondrial marker CIT1-RFP or the ER marker SEC13-RFP were imaged as described in Example 5 both before and after 2 hours of treatment with 2 mM coniferyl aldehyde. […] Using the object-based analysis, the percentage volume of Zwf1 localizing to the mitochondria was measured as 47.10±8.04%. Likewise, co-localization of Zwf1-GFP to the ER marker Sec13-RFP was observed, though to a lesser extent, and confirmed by a quantitative analysis using a Mander's overlap co-efficient (0.22±0.07). (FIG. 11B).

[3] = system: Sol2-GFP, Sol3-GFP and Rpe1-GFP; test: fluorescence microscopy of GFP-tagged pentose phosphate pathway proteins; assay type: cell-based, S. cerevisiae; conditions: 2 mM coniferyl aldehyde
[4] = 2 mM coniferyl aldehyde, object-based analysis
[5] = 2 hours of treatment with 2 mM coniferyl aldehyde

COc1cc(C=CC=O)ccc1O [coniferyl aldehyde, 4-hydroxy-3-methoxycinnamaldehyde]
Manders' overlap co-efficient, ROS with ER marker SEC13-RFP ([1]; 2 mM coniferyl aldehyde): 0.13±0.1 | Manders' overlap co-efficient, ROS with mitochondria marker CIT1-RFP ([1]; 2 mM coniferyl aldehyde): 0.45±0.04 | percentage volume of ROS that localized to the mitochondria [1, 4]: 54.1±17.29% | total volume of ROS that localized to the ER [1, 4]: 26.5±12.8% | localization of ROS to peroxisomes ([1]; 2 mM coniferyl aldehyde, peroxisome marker PEX3-RFP): did not localize to the peroxisomes | mitochondrial fragmentation ([1]; after 2 hours of coniferyl aldehyde treatment): high degree of mitochondrial fragmentation | resistance of bna7Δ / protection by deletion of BNA7 (bna7Δ (YKB4649)): does not provide protection | growth of zwf1Δ on agar plates (zwf1Δ (YKB4794)): no growth; also recorded: limited growth | growth of gnd1Δ on agar plates (gnd1Δ (YKB4797)): no growth | growth of tkl1Δ on agar plates (tkl1Δ (YKB4796)): no growth | growth of rpe1Δ on agar plates (rpe1Δ (YKB4795)): no growth | concentration at which the compound kills the yeast [2]: 1 mM | Mander's overlap co-efficient, Zwf1-GFP with ER marker Sec13-RFP (Zwf1-GFP; [5]): 0.22±0.07 | Manders' overlap coefficient, Zwf1-GFP with mitochondrial marker CIT1-RFP (Zwf1-GFP; [5]): 0.34±0.07 | percentage volume of Zwf1 localizing to the mitochondria (Zwf1-GFP; 2 hours, 2 mM coniferyl aldehyde, object-based analysis): 47.10±8.04% | localization of Sol2-GFP, Sol3-GFP and Rpe1-GFP signal [3]: concentration of signal into punctate structures
